Reference: patent US8841321B2, “Quinoline derivatives as antibacterial agents” (Janssen Pharmaceutica NV, priority 2005, dated 2014)
Converted amounts (≈) assume the structure as drawn.

Key:
[1] = system: STA 29213 (Staphylococcus aureus (ATCC29213)); assay: Microtitre plate assay, IC90 determination; type: cell-based; conditions: for IC90 (μg/ml) STA 29213: Staphylococcus aureus (ATCC29213)
Experimental: (§1) The bacteria used in this study were grown overnight in flasks containing 100 ml Mueller-Hinton Broth (Becton Dickinson—cat. no. 275730) in sterile de-ionized water, with shaking, at 37° C. Stocks (0.5 ml/tube) were stored at −70° C. until use. Bacteria titrations were performed in microtiter plates and colony forming units (CFUs) were determined. In general, an inoculum level of approximately 100 CFUs was used for susceptibility testing.
(§2) Flat-bottom, sterile 96-well plastic microtiter plates were filled with 180 μl of sterile deionized water, supplemented with 0.25% BSA. Subsequently, stock solutions (7.8× final test concentration) of compounds were added in 45 μl volumes in column 2. Serial five-fold dilutions (45 μl in 180 μl) were made directly in the microtiter plates from column 2 to reach column 11. Untreated control samples with (column 1) and without (column 12) inoculum were included in each microtiter plate. Depending on the bacteria type, approximately 10 to 60 CFU per well of bacteria inoculum (100 TCID50), in a volume of 100 μl in 2.8× Mueller-Hinton broth medium, was added to the rows A to H, except column 12. The same volume of broth medium without inoculum was added to column 12 in row A to H. The cultures were incubated at 37° C. for 24 hours under a normal atmosphere (incubator with open air valve and continuous ventilation). At the end of incubation, one day after inoculation, the bacterial growth was quantitated fluorometrically. Therefore resazurin (0.6 mg/ml) was added in a volume of 20 μl to all wells 3 hours after inoculation, and the plates were re-incubated overnight. A change in colour from blue to pink indicated the growth of bacteria. The fluorescence was read in a computer-controlled fluorometer (Cytofluor Biosearch) at an excitation wavelength of 530 nm and an emission wavelength of 590 nm. The % growth inhibition achieved by the compounds was calculated according to standard methods. The IC90 (expressed in μg/ml) was defined as the 90% inhibitory concentration for bacterial growth.

[2] = system: SPN 6305 (Streptococcus pneumoniae (ATCC6305)); assay: Microtitre plate assay, IC90 determination; type: cell-based; conditions: for IC90 (μg/ml) SPN 6305: Streptococcus pneumoniae (ATCC6305)
Experimental: as §1, §2

Row | IC90 (μg/ml) STA 29213 [1] | IC90 (μg/ml) SPN 6305 [2] | IC90 ([1]; Staphylococcus aureus, ATCC29213, Staphylococcus aureus (ATCC29213), read-out: IC90 (μg/ml) STA 29213) | IC90 ([2]; Streptococcus pneumoniae, ATCC6305, Streptococcus pneumoniae (ATCC6305), read-out: IC90 (μg/ml) SPN 6305) | Compound
1 | 2.15 µg/mL (≈ 3.99 µM) | 2.7 µg/mL (≈ 5.01 µM) | – | – | COc1nc2ccc(Cl)cc2cc1C(c1ccccc1)C(O)(CCCCN(C)C)c1ccc2ccccc2c1 (racemic) [Compound 79]
2 | 11.48 µg/mL (≈ 19.9 µM) | 2.29 µg/mL (≈ 3.98 µM) | – | – | CCCCN(C)CCCCC(O)(c1ccccc1)C(c1ccccc1)c1cc2cc(Br)ccc2nc1OC (racemic) [Compound 92]
3 | 11.16 µg/mL (≈ 19.9 µM) | 9.95 µg/mL (≈ 17.8 µM) | – | – | COc1nc2ccc(Br)cc2cc1C(c1ccccc1)C(O)(CCCCN1CCCC1)c1ccccc1 (racemic) [Compound 93]
4 | 9.13 µg/mL (≈ 17.8 µM) | 2.29 µg/mL (≈ 4.46 µM) | – | – | COc1nc2ccc(Br)cc2cc1C(c1ccccc1)C(O)(CCCCN(C)C)CC(C)C (racemic) [Compound 117]
5 | 8.14 µg/mL (≈ 15.9 µM) | 5.14 µg/mL (≈ 10 µM) | – | – | COc1nc2ccc(Br)cc2cc1C(c1ccccc1)C(O)(CCCCN(C)C)CC(C)C (racemic) [Compound 118]
6 | 18.72 µg/mL (≈ 35.5 µM) | 4.19 µg/mL (≈ 7.94 µM) | – | – | COc1nc2ccc(Br)cc2cc1C(c1ccccc1)C(O)(CCCCN(C)C)CCC(C)C (racemic) [Compound 119]
7 | 8.36 µg/mL (≈ 15.8 µM) | 10.53 µg/mL (≈ 20 µM) | – | – | COc1nc2ccc(Br)cc2cc1C(c1ccccc1)C(O)(CCCCN(C)C)CCC(C)C (racemic) [Compound 120]
8 | 60.0 µg/mL (≈ 100 µM) | 60.0 µg/mL (≈ 100 µM) | – | – | CSc1nc2ccc(Br)cc2cc1C(c1ccccc1)C(O)(CCCCN(C)C)c1ccc2ccccc2c1 (single isomer, unassigned) [Compound 3]
9 | 1.84 µg/mL (≈ 3.55 µM) | 1.84 µg/mL (≈ 3.55 µM) | – | – | COc1nc2cc(C)ccc2cc1C(c1ccccc1)C(O)(CCCCN(C)C)c1ccc2ccccc2c1 (single isomer, unassigned) [Compound 77]
10 | 1.84 µg/mL (≈ 3.55 µM) | – | – | – | COc1nc2cc(C)ccc2cc1C(c1ccccc1)C(O)(CCCCN(C)C)c1ccc2ccccc2c1 (single isomer, unassigned) [Compound 78]
11 | 9.33 µg/mL (≈ 15.9 µM) | 2.09 µg/mL (≈ 3.55 µM) | – | – | COc1nc2ccc(Br)cc2cc1C(c1ccccc1)C(O)(CCCCN1CCN(C)CC1)c1ccccc1 (single isomer, unassigned) [Compound 111]
12 | – | 7.25 µg/mL (≈ 12.6 µM) | – | – | COc1nc2ccc(Br)cc2cc1C(c1ccccc1)C(O)(CCCCN1CCOCC1)c1ccccc1 (single isomer, unassigned) [Compound 114]
13 | – | 2.29 µg/mL (≈ 3.98 µM) | – | – | COc1nc2ccc(Br)cc2cc1C(c1ccccc1)C(O)(CCCCN1CCOCC1)c1ccccc1 (single isomer, unassigned) [Compound 115]
14 | 5.76 µg/mL (≈ 10 µM) | 2.04 µg/mL (≈ 3.54 µM) | – | – | COc1nc2ccc(Br)cc2cc1C(c1ccccc1)C(O)(CCCCN1CCOCC1)c1ccccc1 (single isomer, unassigned) [Compound 116]
15 | 2.26 µg/mL (≈ 3.98 µM) | 1.79 µg/mL (≈ 3.15 µM) | – | – | COc1nc2ccc(Br)cc2cc1C(c1ccccc1)C(O)(CCCCN1CCCCC1)CCC(C)C (single isomer, unassigned) [Compound 123]
16 | 1.73 µg/mL (≈ 3.16 µM) | – | – | – | COc1nc2ccc(Br)cc2cc1C(c1ccccc1)C(O)(CCCCN(C)C)Cc1ccccc1 (single isomer, unassigned) [Compound 128]
17 | – | – | 21.2 µg/mL (≈ 39.9 µM) | – | COc1nc2ccc(-c3cccnc3)cc2cc1C(c1ccccc1)C(O)(CCCCN(C)C)c1ccccc1 (stereo not drawn) [Compound 43]
18 | – | 5.4 µg/mL (≈ 8.86 µM) | – | – | COc1nc2ccc(Br)cc2cc1C(c1ccccc1)C(O)(CCCCN(C)Cc1ccccc1)c1ccccc1 (stereo not drawn) [Compound 60]
19 | – | – | – | 5.43 µg/mL (≈ 8.91 µM) | COc1nc2ccc(Br)cc2cc1C(c1ccccc1)C(O)(CCCCN(C)Cc1ccccc1)c1ccccc1 (stereo not drawn) [Compound 61]

The next lines start with the compound.

Row | Compound | IC90 (μg/ml) STA 29213 [1] | IC90 (μg/ml) SPN 6305 [2] | IC90 ([1]; Staphylococcus aureus, ATCC29213, Staphylococcus aureus (ATCC29213), read-out: IC90 (μg/ml) STA 29213) | IC90 ([2]; Streptococcus pneumoniae, ATCC6305, Streptococcus pneumoniae (ATCC6305), read-out: IC90 (μg/ml) SPN 6305)
20 | COc1nc2ccc(Br)cc2cc1C(c1ccccc1)C(O)(CCCCN1CCCCC1)c1ccccc1 (racemic) [Compound 94] | 4.06 µg/mL (≈ 7.08 µM) | 1.81 µg/mL (≈ 3.16 µM) | – | –
21 | COc1nc2ccc(Br)cc2cc1C(c1ccccc1)C(O)(CCCCN1CCCCC1)c1ccccc1 (racemic) [Compound 95] | 10.2 µg/mL (≈ 17.8 µM) | 2.28 µg/mL (≈ 3.98 µM) | – | –
22 | COc1ccc(C(O)(CCCCN2CCCCC2)C(c2ccccc2)c2cc3cc(Br)ccc3nc2OC)cc1 (racemic) [Compound 97] | 1.91 µg/mL (≈ 3.16 µM) | 1.91 µg/mL (≈ 3.16 µM) | – | –
23 | COc1nc2ccc(Br)cc2cc1C(c1ccccc1)C(O)(CCCCN1CCC(C)CC1)c1ccc2ccccc2c1 (racemic) [Compound 103] | 1.8 µg/mL (≈ 2.82 µM) | 0.4 µg/mL (≈ 0.627 µM) | – | –
24 | COc1nc2ccc(Br)cc2cc1C(c1ccccc1)C(O)(CCCCN1CCCCC1)CC(C)C (racemic) [Compound 121] | 8.77 µg/mL (≈ 15.8 µM) | 1.96 µg/mL (≈ 3.54 µM) | – | –
25 | COc1nc2ccc(Br)cc2cc1C(c1ccccc1)C(O)(CCCCN(C)C(C)C)c1ccccc1 (single isomer, unassigned) [Compound 88] | 11.2 µg/mL (≈ 19.9 µM) | 6.3 µg/mL (≈ 11.2 µM) | – | –
26 | COc1nc2ccc(Br)cc2cc1C(c1ccccc1)C(O)(CCCCN(C)C(C)C)c1ccccc1 (single isomer, unassigned) [Compound 90] | 2.24 µg/mL (≈ 3.99 µM) | 2.51 µg/mL (≈ 4.47 µM) | – | –
27 | COc1nc2ccc(Br)cc2cc1C(c1ccccc1)C(O)(CCCCN1CCCCC1)c1ccccc1 (single isomer, unassigned) [Compound 98] | 1.81 µg/mL (≈ 3.16 µM) | 2.04 µg/mL (≈ 3.56 µM) | – | –
28 | COc1nc2ccc(Br)cc2cc1C(c1ccccc1)C(O)(CCCCN1CCCCC1)c1ccccc1 (single isomer, unassigned) [Compound 99] | 1.81 µg/mL (≈ 3.16 µM) | 2.04 µg/mL (≈ 3.56 µM) | – | –
29 | COc1nc2ccc(Br)cc2cc1C(c1ccccc1)C(O)(CCCCN1CCCCC1)c1ccccc1 (single isomer, unassigned) [Compound 100] | 9.09 µg/mL (≈ 15.8 µM) | 11.44 µg/mL (≈ 19.9 µM) | – | –
30 | COc1nc2ccc(Br)cc2cc1C(c1ccccc1)C(O)(CCCCN1CCCCC1)c1ccccc1 (single isomer, unassigned) [Compound 101] | 9.09 µg/mL (≈ 15.8 µM) | 9.09 µg/mL (≈ 15.8 µM) | – | –
31 | COc1nc2ccc(Br)cc2cc1C(c1ccccc1)C(O)(CCCCN1CCN(C)CC1)c1ccccc1 (single isomer, unassigned) [Compound 108] | 8.31 µg/mL (≈ 14.1 µM) | 2.34 µg/mL (≈ 3.98 µM) | – | –
32 | COc1nc2ccc(Br)cc2cc1C(c1ccccc1)C(O)(CCCCN1CCN(C)CC1)c1ccccc1 (single isomer, unassigned) [Compound 109] | 9.33 µg/mL (≈ 15.9 µM) | 5.25 µg/mL (≈ 8.92 µM) | – | –
33 | COc1nc2ccc(Br)cc2cc1C(c1ccccc1)C(O)(CCCCN1CCN(C)CC1)c1ccccc1 (single isomer, unassigned) [Compound 110] | 9.33 µg/mL (≈ 15.9 µM) | 4.68 µg/mL (≈ 7.95 µM) | – | –
34 | COc1nc2ccc(Br)cc2cc1C(c1ccccc1)C(O)(CCCCN1CCN(C)CC1)c1ccc2ccccc2c1 (single isomer, unassigned) [Compound 113] | 14.3 µg/mL (≈ 22.4 µM) | 2.54 µg/mL (≈ 3.98 µM) | – | –
35 | COc1nc2ccc(Br)cc2cc1C(c1ccccc1)C(O)(CCCCN1CCN(C)CC1)CCC1CCCCC1 (single isomer, unassigned) [Compound 125] | 9.87 µg/mL (≈ 15.9 µM) | 4.95 µg/mL (≈ 7.95 µM) | – | –
